Assay results: US20130102624A1 (priority 2011, published 2013)

How the values were obtained:
[1] = urinary excretion of thiamine metabolites TMA and PMA and TMA/PMA ratio (LC-MS/MS of urine)
[2] = in vivo; cited from earlier work

Row | Urinary excretion rate at lowest point during fasting ([1]; human) [nmol/h] | Structure (SMILES) | TMA/PMA ratio relative to its typical fasting value (transient reduction) ([1]; consumption of thiamine after a period of induced deficiency) | Ratio of TMA to PMA (TMA/PMA) in urine ([1]; human, following consumption of thiamine (100 mg) after fast and sucrose) | Oral bioavailability [2]
1 | 0.07 | Cc1ncc(CO)c(N)n1 [PMA] | – | – | –
2 | 0.06 | Cc1ncsc1CCO [TMA] | – | – | –
3 | – | Cc1ncc(C[n+]2csc(CCO)c2C)c(N)n1 [thiamine] | less than 20% | 0.12 | poor
